From patent US11376271B1, “Methods of ameliorating the effects of alcoholic liver damage” (FULGENT LIFE INC., priority 2021, dated 2022)

Key:
[1] = system: C2C12, Neuro2a and AML12 cells; experiment: Toxicity: total cell number / trypan blue count after 24 h; type: cell-based; conditions: 1 mM
Experimental: The sharp increase of NAD+ concentration indicates a possible toxicity to cells. To assess this toxicity, C2C12, Neuro2a and AML12 cells were treated with 1 mM NADH for 24 hours, and then the total cell numbers were measured. […] The cells were stained with trypan blue and then counted with a hemocytometer. […] The Annexin V/PI staining kit and Caspases3/7/SYTOX dead cell staining kit (Life Technologies) were used and cells were counted with a BD FACSCelesta™ flow cytometer. The quadrants of apoptotic cells, necrotic cells and living cells were identified and quantified according to the manufacturer's instructions.
To examine apoptotic markers, AML12 cells were stained for Annexin V and Caspase 3/7, and cells were counted with a flow cytometer. […] Quadrants with live cells (brown), necrotic cells (gray) and apoptotic cells (blue) were quantified.

male C57BL/6J mice [2] = experiment: Loss of righting reflex (LORR) test; type: in vivo; conditions: 500 mg/kg intragastric 15 min prior to 8 ml/kg ethanol
Text: Alcohol acts on the central nervous system, causing various behavioral and/or cognitive problems, e.g., loss of righting reflex (LORR). […] LORR is defined as the phenomenon that mice cannot correct themselves three times within 30 seconds after alcohol intake. LORR latency is defined as the time from drinking to occurrence of LORR, and LORR duration is defined as the time from occurrence to recovery of LORR.
Fisher's exact probability test was used to analyze the loss of righting reflex (LORR) in the mice. […] The data representing LORR latency and duration are expressed as mean±SD (n=10); *p<0.05 vs alcohol group.

hepatocyte AML12 cells = experiment: NADH dose-response and time course of NAD+ levels in AML12 cells; type: cell-based
Experimental: Also, cells were cultured as follows.
A dose-response curve was also determined for hepatocyte AML12 cells. These cells were treated with rising concentrations of NADH for 3 h. […] (n=3). *, p<0.01; **, p<0.001 vs Control.
Time course studies for NADH action were also carried out. AML12 cells were incubated with NADH for various incubation times (0-12 hr) and then harvested, and the NAD+ levels were assessed. […] (n=3). *, p<0.01; **, p<0.001 vs Control.

male C57BL/6J mice [3] = experiment: Liver triglyceride and serum VLDL (lipid metabolism); type: in vivo; conditions: 500 mg/kg intragastric 15 min prior to 8 ml/kg ethanol
Experimental: Liver samples were prepared with homogenization in cold isotonic saline. The homogenate (10%, w/v) was centrifuged at 4500 g for 10 minutes and the supernatant was used for biochemical analysis. The MDA, SOD and TG levels were determined with commercial kits (Abcam, #ab118970; Thermofisher, #EIASODC and Abcam, ab65336) according to the manufacturer's instructions. The results were normalized to the total protein determined by BCA Protein Assay Kit (Abcam, #ab102536) according to the manufacturer's instructions. […] Liver histopathology was detected by Oil Red 0 staining. According to the standard operating procedure, some liver tissues were fixed for histopathological assessment. The other part of the liver was stored at −80° C. […] frozen sections were stained with Oil Red 0 to detect liver steatosis. The stained sections were examined by a 400× optical microscope. The level of VLDL in serum samples was examined with a Bio-Tek synergy2 Multiscan Spectrum (Botten Instruments Co.). To evaluate alcoholic liver injury, the index of liver lipid metabolism (i.e., the triglyceride (TG) level in liver tissue) and the activity of serum Very Low Density Lipoprotein (VLDL) were also measured in the mice treated as described above in connection with FIG. 9A. […] The data in both FIGS. 9A and 9B are expressed as mean±SD (n=8); *p<0.01 vs control; #p<0.01 vs alcohol exposure.

[4] = system: mammalian cell lines (insulinogenic (MING), neuronlike (LN229), muscle-like (C2C12), and normal hepatocyte (AML12) cells); experiment: NAD+ levels in mammalian cell lines treated with NADH, NRH or NMN; conditions: 1 mM, 3 h; all cell lines
Experimental: Also, cells were cultured as follows. LN229, Neuro2a, and C2C12 cells were grown in Dulbecco's modified Eagle's medium (DMEM) supplemented with 10% fetal bovine serum (FBS), 100 units/ml penicillin, and 100 μg/ml streptomycin. […] AML12 cells were cultured in a 1:1 mixture of DMEM high glucose/Ham's F-12 with I-glutamine and supplemented with 10% FCS, 15 mM HEPES, 40 ng/ml dexamethasone, 0.005 mg/ml human recombinant insulin, 5 ng/ml sodium selenite and 0.005 mg/ml transferrin (Sigma Aldrich).
The cells were seeded in 6-well plates until they reached approximately 80% confluence. […] The number of cells was counted by hemocytometer and trypan blue. The harvested cells were then pelleted at 3000×g for 3 min. After eliminating the residual medium, the cells were lysed with 7% perchloric acid to preserve NAD+, and then neutralized with NaOH (2 M) and K2HPO4 (500 mM).

male C57BL/6J mice [5] = experiment: Liver NAD+/NADH ratio after ethanol administration; type: in vivo; conditions: 500 mg/kg intragastric 15 min before 8 ml/kg ethanol (40% w/v)
Experimental: The ratio of NAD^+/NADH in the liver was then measured at different times after ethanol administration. The NAD^+/NADH ratios were detected using a NAD+/NADH Quantification Colorimetric Kit (ABIN411692) in compliance with the manufacturer's instructions. Fresh tissue lysate was prepared from snap cryo-frozen liver samples stored in […], and 20 mg liver was homogenized with NAD^+/NADH extraction buffer (400 μL). In order to quickly remove enzymes that may consume NADH, the samples were filtered through a 10 kD molecular weight cut-off filter before detection. […] Concentrations were calculated using an NADH standard curve.

male C57BL/6J mice [6] = experiment: Blood ethanol and acetaldehyde levels after ethanol administration
AML12 cells = experiment: Apoptosis markers Annexin V and Caspase 3/7 by flow cytometry; type: cell-based; conditions: 1 mM, 24 hours
Text: To examine apoptotic markers, AML12 cells were stained for Annexin V and Caspase 3/7, and cells were counted with a flow cytometer. […] Data are expressed as mean±SD, n=3. Quadrants with live cells (brown), necrotic cells (gray) and apoptotic cells (blue) were quantified.

male C57BL/6J mice [7] = experiment: Liver MDA and SOD after acute alcohol ingestion; type: in vivo; conditions: 500 mg/kg intragastric 15 min prior to 8 ml/kg ethanol; liver 6 h after alcohol
Experimental: Six hours after treatment with alcohol, liver tissues were taken for determination of MDA and SOD. Liver samples were prepared with homogenization in cold isotonic saline. The homogenate (10%, w/v) was centrifuged at 4500 g for 10 minutes and the supernatant was used for biochemical analysis. The MDA, SOD and TG levels were determined with commercial kits (Abcam, #ab118970; Thermofisher, #EIASODC and Abcam, ab65336) according to the manufacturer's instructions. The results were normalized to the total protein determined by BCA Protein Assay Kit (Abcam, #ab102536) according to the manufacturer's instructions.

[8] = 500 mg/kg intragastric 15 min before 8 ml/kg ethanol (40% w/v)

NC(=O)C1=CN([C@@H]2O[C@H](COP(=O)(O)OP(=O)(O)OC[C@H]3O[C@@H](n4cnc5c(N)ncnc54)C(O)C3O)C(O)C2O)C=CC1 (some centres unmarked) [NADH, nicotinamide adenine dinucleotide (NAD)+hydrogen (H)]
Trypan blue positive cells [1]: less than 5%
loss of cultured cells (total cell number) [1]: no obvious loss
LORR duration relative to the model group (male C57BL/6J mice [2]): one third
LORR duration vs model group (male C57BL/6J mice [2]): decrease
LORR latency vs model group (male C57BL/6J mice [2]): prolonged
average LORR latency relative to the model group (male C57BL/6J mice [2]): 4 times
share of mice that had a righting reflex after drinking alcohol (male C57BL/6J mice [2]): less than half
LORR rate vs model group (male C57BL/6J mice [2]; model group 100%): decrease
average LORR latency (male C57BL/6J mice [2]; model group 14.76 minutes): 60.24 min
LORR duration (male C57BL/6J mice [2]; model group about 798.68 minutes): 265.00 min
concentration of NAD+ relative to the control group (hepatocyte AML12 cells; 50 μM NADH, 3 h): approximately 4 times
concentration of NAD+ relative to the untreated control group (saturation) (hepatocyte AML12 cells; 500 μM NADH, 3 h): 10 times
time after which full NAD+ increasing effects were present (hepatocyte AML12 cells; 1 mM NADH): 3 h
time at which NAD+ concentration-increasing effects appeared (hepatocyte AML12 cells; 1 mM NADH): 0.5 h
NAD+ after 12 hours of treatment (hepatocyte AML12 cells; 1 mM NADH, 12 h): remained at a high concentration
liver TG level vs alcohol exposure alone (male C57BL/6J mice [3]): decreased
liver index vs alcohol exposure alone (male C57BL/6J mice [3]): decreased
serum VLDL level vs alcohol exposure alone (male C57BL/6J mice [3]): decreased
induced NAD+ levels compared with NMN [4]: much higher than those induced by NMN
ethanol-induced decrease of liver NAD+/NADH redox ratio (male C57BL/6J mice [5]): significantly inhibited this decrease
acetaldehyde in the blood two hours after alcohol administration (male C57BL/6J mice [6]; [8]): significantly reduced
blood acetaldehyde levels within two hours after ethanol administration (male C57BL/6J mice [6]; [8]): significantly increased
ethanol in the blood (male C57BL/6J mice [6]; 500 mg/kg oral 15 min before 8 ml/kg ethanol (40% w/v), 30 minutes after ethanol): significantly reduced
Annexin V or caspase 3/7 apoptosis markers vs control (AML12 cells): no significant changes
MDA content in the liver (male C57BL/6J mice [7]): significantly reduce
SOD activity in the liver (male C57BL/6J mice [7]): increase
